Laboratory results published in US12091417B2, “7-ethyl-10-hydroxycamptothecin derivatives for use in the treatment of cancer” (Narodowy Instytut Lekow, priority 2020, dated 2024).
Where two headings read alike, the source gives them in different places.

Legend:
MCF7 = assay: MTT cell proliferation test, cytotoxicity on MCF7 breast cancer cells; type: cell-based, human; details: MCF7, 72 hrs incubation, read-out: IC50 μmole/L, after 72 hrs incubation time
Experimental: (§1) IC50 Determination Using the Photometric Assay.
(§2) All cell lines, MCF7, HT29, HL60, A549 and CRL1790 were purchased from ATCC (American Cell Culture Collection). As exemplified the MCF-7 human breast cancer, the cell line was grown in Iscove's Modified Dulbecco's Medium, supplemented with 10% heat-inactivated fetal bovine serum, penicillin (100 Ul/mL), streptomycin (100 μg/mL), amphotericin (250 ng/mL), L-glutamine (2 mM) and 1% non-essential amino acids solution. The culture of HL-60 human leukemia cells was conducted in Iscove's Modified Dulbecco's Medium, supplemented with 20% heat-inactivated fetal bovine serum, penicillin (100 Ul/mL), streptomycin (100 μg/mL), amphotericin (250 ng/mL), L-glutamine (2 mM) and 1% non-essential amino acids solution.
(§3) The cells were grown at 37° C. in a humidified atmosphere containing 5% CO2. After 80% confluence was reached, the adherent MCF7, HL-60, cells were detached with a 0.25% trypsin solution and seeded in 96-well plates at a density of 5×10^4 cells/mL, 5×10^5 cells/mL, respectively.
(§4) After overnight incubation, the increasing concentrations (0.1-20 μM) of studied compounds dissolved in DMSO were added to the wells. Pure DMSO diluted at the ratio of 1:1000 (v/v) in growth media was added to control wells. After 24, 48 or 72 hours of incubation the MTT-cell proliferation test was performed.
(§5) The test exploits the ability of living cells mitochondrial dehydrogenases to convert water-soluble 3-(4,5-dimethylthiazol-2-yl)-2,5-diphenyltetrazolium bromide (MTT) to non-soluble formazan. Briefly, after 3 hours incubation of cells with MTT solution the absorbance of formazan dissolved in isopropyl alcohol was measured in a Power Wavex microplate spectrophotometer (BioTek Instruments) at 570 nm.
(§6) In order to compare the cytotoxicity of studied compounds the IC50 values (the concentrations which induce the cell viability decreased to 50% of the control) were determined. The normalized MTT data were fitted to log(inhibitor) vs. response-variable slope model (R^2>0.9) described by the Equation 1 using Prism 5 ver 5.03 (GraphPad Software, Inc):
(§7) [formula] where: V—cell viability, c—compound concentration, h—Hill coefficient.
(§8) As a result log IC50 with the standard error were calculated.

HT29 = assay: MTT cell proliferation test, cytotoxicity on HT29 colon cancer cells; type: cell-based; details: HT29, 72 hrs incubation, read-out: IC50 μmole/L, after 72 hrs incubation time
Experimental: as §1, §2, §3, §4, §5, §6, §7, §8

HL60 = assay: MTT cell proliferation test, cytotoxicity on HL60 leukemia cells; type: cell-based, human
Experimental: as §1, §2, §3, §4, §5, §6, §7, §8

A549 = assay: MTT cell proliferation test, cytotoxicity on A549 lung cancer cells; type: cell-based; details: A549, 72 hrs incubation, read-out: IC50 μmole/L, after 72 hrs incubation time
Experimental: as §1, §2, §3, §4, §5, §6, §7, §8

CRL1790 = assay: MTT cell proliferation test, cytotoxicity on CRL1790 normal cells; type: cell-based; details: CRL1790, 72 hrs incubation, read-out: IC50 μmole/L, after 72 hrs incubation time
Experimental: as §1, §2, §3
[…] Pure DMSO diluted at the ratio of 1:1000 (v/v) in growth media was added to control wells. After 24, 48 or 72 hours of incubation the MTT-cell proliferation test was performed.
as §5
as §6, with “Inc): […]” for “Inc):”
as §8

[1] = Blood, HL60, 72 hrs incubation, MTT, read-out: IC50 μmole/L, after 72 hrs incubation time

Row | Structure (SMILES) | IC50 (MCF7) [µmol/L] | IC50 (HT29) [µmol/L] | IC50 (HL60; [1]) [µmol/L] | IC50 (A549) [µmol/L] | IC50 (HL60; no unit or cell line printed, values match the HL60 line of Table 1, read-out: IC50) [µmol/L] | IC50 (CRL1790) [µmol/L]
1 | CCc1c2c(nc3ccc(O)c(CN4CCC4)c13)-c1cc3c(c(=O)n1C2)COC(=O)C3(O)CC (centres unmarked) [CC1, (N-azetidinyl)methyl-7-ethyl-10-hydroxycamptothecin, reference compound] | 0.99 | 0.07 | 0.012 | 0.071 |  | 
2 | CCc1c2c(nc3ccc(O)c(CN4CCCC4)c13)-c1cc3c(c(=O)n1C2)COC(=O)C3(O)CC (centres unmarked) [CC2, (N-pyrrolidinyl)methyl-7-ethyl-10-hydroxycamptothecin, reference compound] | 1.43 | 0.24 |  | 0.083 | 0.014 | 
3 | CCc1c2c(nc3ccc(O)cc13)-c1cc3c(c(=O)n1[C@H]2CN1CCCC1)COC(=O)[C@]3(O)CC [Compound 1, 5-(R)—(N-pyrrolidinyl)methyl-7-ethyl-10-hydroxycamptothecin] | 0.81 | 0.6 | 0.011 | 0.204 |  | 
4 | CCc1c2c(nc3ccc(O)cc13)-c1cc3c(c(=O)n1[C@@H]2CN1CCCC1)COC(=O)C3(O)CC (stereo partly drawn) [Compound 2, 5-(S)—(N-pyrrolidinyl)methyl-7-ethyl-10-hydroxycamptothecin] | 0.96 | 0.49 | 0.007 | 0.272 |  | 
5 | CCc1c2c(nc3ccc(O)cc13)-c1cc3c(c(=O)n1[C@H]2CO)COC(=O)C3(O)CC (stereo partly drawn) [Compound 3, 5-(R)-hydroxymethyl-7-ethyl-10-hydroxycamptothecin] | 15.9 | 9.48 | 0.72 | 4.27 |  | 
6 | CCc1c2c(nc3ccc(O)cc13)-c1cc3c(c(=O)n1[C@@H]2CO)COC(=O)[C@]3(O)CC [Compound 4, 5-(S)-hydroxymethyl-7-ethyl-10-hydroxycamptothecin] | 14.9 | 14.8 | 1.89 | 6.54 |  | 
7 | C=c1c2c(CC)c3cc(O)ccc3nc2c2cc3c(c(=O)n12)COC(=O)C3(O)CC (centres unmarked) [Compound 5, 5-methylidene-7-ethyl-10-hydroxycamptothecin] |  | 0.15 |  | 1.94 |  | 
8 | CCc1c2c(nc3ccc(O)c(CN4CCC4)c13)-c1cc3c(c(=O)n1[C@H]2CO)COC(=O)C3(O)CC (stereo partly drawn) [Compound 6, 5-(R)-hydroxymethyl-7-ethyl-9-(N-azetidinyl)methyl-10-hydroxycamptothecin] | 11.1 | 6.98 | 0.33 | 5.22 |  | > 1000
9 | CCc1c2c(nc3ccc(O)c(CN4CCC4)c13)-c1cc3c(c(=O)n1[C@@H]2CO)COC(=O)[C@]3(O)CC [Compound 7, 5-(S)-hydroxymethyl-7-ethyl-9-(N-azetidinyl)methyl-10-hydroxycamptothecin] | 6.7 | 2.5 | 0.11 | 1.17 |  | > 1000
10 | CCc1c2c(nc3ccc(O)cc13)-c1cc3c(c(=O)n1C2)COC(=O)[C@]3(O)CC [SN38, 7-ethyl-10-hydroxycamptothecin] | 0.66 | 0.02 | 0.002 | 0.028 |  | 4.98
